Reference: ChEMBL document CHEMBL1131548, “Synthesis and biological evaluation of two analogues of (S)-alpha-methyl-3-carboxyphenylalanine” (Bioorg Med Chem Lett, 1998)
pIC50: −log10 of the molar value. Activity calls are given as the source filed them. The calls are words filed in the database; no cut-off is given here.

Legend:
Rattus norvegicus = species on record: Rattus norvegicus; assay: Compound was evaluated for its antagonist activity and inhibition of forskolin-stimulated cAMP formation by L-AP4 (10 uM), in adult rat cortical slices; assay type: functional
[1] = molecular target: Metabotropic glutamate receptor 6 (Homo sapiens) (UniProt O15303); assay: Compound was evaluated for its agonist activity against mGluR6 in Chinese hamster ovary (CHO) cells at a concentration of 300 uM; assay type: functional, cell-based
[2] = molecular target: Metabotropic glutamate receptor 6 (Homo sapiens) (UniProt O15303); assay: Compound was evaluated for its agonist activity against mGluR6 in Chinese hamster ovary (CHO) cells; Inactive; assay type: functional, cell-based

Sequence of Metabotropic glutamate receptor 6 (Homo sapiens) (O15303 whole entry): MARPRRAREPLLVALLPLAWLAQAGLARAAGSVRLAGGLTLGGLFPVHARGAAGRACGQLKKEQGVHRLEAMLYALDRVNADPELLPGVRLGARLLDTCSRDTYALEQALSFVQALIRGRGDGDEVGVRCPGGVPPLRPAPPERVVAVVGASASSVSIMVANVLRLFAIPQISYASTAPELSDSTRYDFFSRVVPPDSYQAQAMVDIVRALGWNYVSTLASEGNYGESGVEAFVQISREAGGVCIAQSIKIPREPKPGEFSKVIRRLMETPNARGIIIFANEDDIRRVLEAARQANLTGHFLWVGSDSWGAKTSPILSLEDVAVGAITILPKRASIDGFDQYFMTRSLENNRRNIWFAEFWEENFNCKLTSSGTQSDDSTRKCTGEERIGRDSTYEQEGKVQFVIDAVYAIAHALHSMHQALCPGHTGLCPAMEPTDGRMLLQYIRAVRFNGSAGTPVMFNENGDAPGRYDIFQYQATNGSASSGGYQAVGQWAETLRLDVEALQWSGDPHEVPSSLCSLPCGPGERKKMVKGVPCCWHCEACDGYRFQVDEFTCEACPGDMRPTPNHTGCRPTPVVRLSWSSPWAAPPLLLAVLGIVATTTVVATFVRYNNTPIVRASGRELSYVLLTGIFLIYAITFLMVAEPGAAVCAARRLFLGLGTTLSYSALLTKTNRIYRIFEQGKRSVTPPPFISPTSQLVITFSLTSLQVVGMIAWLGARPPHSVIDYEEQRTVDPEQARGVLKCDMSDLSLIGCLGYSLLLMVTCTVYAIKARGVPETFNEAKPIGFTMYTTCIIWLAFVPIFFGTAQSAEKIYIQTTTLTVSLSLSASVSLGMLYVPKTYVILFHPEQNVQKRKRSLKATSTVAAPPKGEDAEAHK

Compound: C[C@](N)(Cc1cccc(C(=O)O)c1)C(=O)O
- pIC50 (Rattus norvegicus): 6.00

Compound: C[C@](N)(Cc1cccc(P(=O)(O)O)c1)C(=O)O
- inhibition [1]: 27%

Compound: C[C@@]1(C(=O)O)Cc2cc(C(=O)O)ccc2CN1
- inhibition [2]: inactive
